Measurements published in patent publication US20110039763A1, “TARGETED ANTIMICROBIAL MOIETIES” (C3 JIAN, INC., priority 2009, published 2011).
“Also recorded” adds a separate entry of the source.

Key:
microorganisms [1] = assay: Morphology, biofilm and growth disrupting peptides (Table 5); type: cell-based; parameters: key: A: Peptide aggregates; B: Less hyphal formation; Clumps; Diffuse clumps and small polyps; F: Diffuse growth; H: Thin; I: Growth inhibition; Microcolony formation; Rippled; Small polyps; Thick; W: Halo formation on top, microlonies on bottom
Excerpt: In certain embodiments peptides that induce alterations in phenotype or other biological activities can also be used as antimicrobial effector moieties.

microorganisms [2] = assay: Targeting peptide binding to target microorganisms (Tables 3, 10, 12); settings: microorganism(s) the targeting peptide binds; binding in aqueous buffers varied with peptide solubility, preferably 1x PBS
microorganisms [3] = assay: Peptide activities: targeting/binding, antimicrobial, growth or phenotype altering (Tables 7, 8); type: cell-based; settings: peptides having multiple activities

Substance | Organism, effect: MRSA (microorganisms [1]) | Target(s) (microorganisms [2]) | Activities (microorganisms [3]) | Organism, effect: C. jeikeium (microorganisms [1]) | Organism, effect: B. subtilis (microorganisms [1]) | Organism, effect: C. jejuni (microorganisms [1]) | Organism, effect: M. luteus (microorganisms [1]) | Organism, effect: S. epidermidis (microorganisms [1]) | Organism, effect: S. pneumoniae (microorganisms [1]) | Organism, effect: C. albicans (microorganisms [1]; C. albicans) | Organism, effect: P. aeruginosa (microorganisms [1]; P. aeruginosa)
PF-156: peptide having multiple activities (LITAEQPATAPIAGK; Peptide with targeting and/or antimicrobial activity) | MRSA (H) | S. epidermidis; also recorded: C. jeikeium | G B |  |  |  |  |  |  |  | 
PF-164: peptide having multiple activities (EEVSRALAGIGLGLGCRIG; Peptide with targeting and/or antimicrobial activity) |  | S. epidermidis; also recorded: M. luteus; also recorded: E. coli; also recorded: C. jeikeium | G B | C. jeikeium (R) |  |  |  |  |  |  | 
PF-171: peptide having multiple activities (TQVTLCRTW; Peptide with targeting and/or antimicrobial activity) | MRSA (M) | S. epidermidis; also recorded: E. coli; also recorded: P. aeruginosa; also recorded: S. pneumoniae | G B |  | B. subtilis (D) | C. jejuni (R) | M. luteus (R) | S. epidermidis (R) | S. pneumoniae (D) |  | 
PF-173: peptide having multiple activities (AGRTAIVQGGG; Peptide with targeting and/or antimicrobial activity) |  | S. epidermidis; also recorded: M. luteus; also recorded: P. mirabilis; also recorded: E. coli; also recorded: P. aeruginosa; also recorded: C. albicans; also recorded: C. jeikeium; also recorded: C. jejuni | G B | C. jeikeium (D) |  |  |  | S. epidermidis (A) |  |  | 
PF-175: peptide having multiple activities (RRRPAGQRPEKASQAMIAA; Peptide with targeting and/or antimicrobial activity) |  | S. epidermidis; also recorded: E. faecalis | G B |  | B. subtilis (D) | C. jejuni (M) | M. luteus (S) |  | S. pneumoniae (A) | C. albicans (B) | 
PF-176: peptide having multiple activities (RLTSNQFLTRITPFVFAQH; Peptide with targeting and/or antimicrobial activity) |  | S. epidermidis and M. luteus and P. mirabilis and E. coli and C. albicans and MRSA and E. faecalis and C. jeikeium | G B | C. jeikeium (D) |  |  | M. luteus (C) | S. epidermidis (C) |  |  | 
PF-180: peptide having multiple activities (SGLGDLGFSSEAK; Peptide with targeting and/or antimicrobial activity) |  | S. epidermidis and M. luteus and P. aeruginosa and C. albicans and MRSA and E. faecalis and C. jejuni and M. smegmatis | G B |  |  |  |  | S. epidermidis (C) |  |  | 
PF-186: peptide having multiple activities (DADKNLSLERDRFAWRVAAP; Peptide with targeting and/or antimicrobial activity) |  | S. epidermidis and M. luteus and E. coli and P. aeruginosa and MRSA and C. jeikeium | G B | C. jeikeium (A) |  |  |  | S. epidermidis (C) |  |  | 
PF-188: peptide having multiple activities (ARTFAGRLGTRYFGGLMRSTKA; Peptide with targeting and/or antimicrobial activity) |  | S. epidermidis and M. luteus and E. coli and C. albicans and MRSA and E. faecalis | G B | C. jeikeium (H) |  |  |  |  |  |  | 
PF-191: peptide having multiple activities (QFCNFAWLFLASNNAQVSALA; Peptide with targeting and/or antimicrobial activity) | MRSA (H) | E. coli; also recorded: P. aeruginosa; also recorded: C. jejuni | G B | C. jeikeium (R) |  |  |  | S. epidermidis (A) |  |  | 
PF-192: peptide having multiple activities (VEEDEAPPPHY; Peptide with targeting and/or antimicrobial activity) |  | S. epidermidis; also recorded: M. luteus; also recorded: P. aeruginosa; also recorded: C. albicans; also recorded: E. faecalis; also recorded: C. jeikeium | G B |  |  |  |  | S. epidermidis (D) |  |  | 
PF-204: peptide having multiple activities (ALQKQDMNLPSVKNQLVFLKSTG; Peptide with targeting and/or antimicrobial activity) |  | S. epidermidis; also recorded: P. mirabilis; also recorded: E. coli; also recorded: P. aeruginosa; also recorded: C. albicans; also recorded: C. jejuni | G B | C. jeikeium (D) |  |  | M. luteus (C) | S. epidermidis (C) |  |  | P. aeruginosa (H)
PF-208: peptide having multiple activities (DAYHCHLVRSPDAHDLSMRIGFV; Peptide with targeting and/or antimicrobial activity) |  | S. epidermidis and C. albicans and MRSA and S. pneumoniae and E. faecalis and C. jeikeium and C. jejuni | G B | C. jeikeium (A) |  |  |  | S. epidermidis (D) |  |  | 
PF-212: peptide having multiple activities (NDSKASN; Peptide with targeting and/or antimicrobial activity) |  | M. luteus; also recorded: P. aeruginosa | G B |  |  |  | M. luteus (M) |  |  |  | 
PF-215: peptide having multiple activities (ELKITNYNVNTVLYRYYKWGNDLCE; Peptide with targeting and/or antimicrobial activity) |  | S. epidermidis; also recorded: M. luteus; also recorded: P. aeruginosa; also recorded: A. baumannii | G B |  |  |  | M. luteus (T) |  |  |  | 
PF-224: peptide having multiple activities (DYFYITLSQKNTF; Peptide with targeting and/or antimicrobial activity) |  | S. epidermidis; also recorded: P. aeruginosa; also recorded: A. baumannii | G B |  |  |  | M. luteus (T) |  |  |  | 
PF-233: peptide having multiple activities (DANAMARTTIAIVYILALIALTISYSL; Peptide with targeting and/or antimicrobial activity) |  | S. epidermidis; also recorded: M. luteus; also recorded: P. aeruginosa; also recorded: A. baumannii | G B |  |  |  |  | S. epidermidis (C) |  |  | 
PF-234: peptide having multiple activities (RTPYILRS; Peptide with targeting and/or antimicrobial activity) |  | S. epidermidis; also recorded: M. luteus | G B |  |  |  | M. luteus (T) |  |  |  | 
PF-235: peptide having multiple activities (GIPFSKPHKRQVNYMKSDVLAYIEQNKMAHTA; Peptide with targeting and/or antimicrobial activity) |  | S. epidermidis; also recorded: M. luteus | G B |  |  |  | M. luteus (T) |  |  |  | 
PF-249: peptide having multiple activities (chain 1 INSRYKISF; chain 2 INSRYKISF; Peptide with targeting and/or antimicrobial activity) |  | S. epidermidis; also recorded: M. luteus | G B |  |  |  | M. luteus (R) |  |  |  | 
PF-255: peptide having multiple activities (chain 1 DHKINESQHNPFRSDSNKQNVDFF; chain 2 DHKINESQHNPFRSDSNKQNVDFF; Peptide with targeting and/or antimicrobial activity) |  | P. aeruginosa | G B |  |  |  | M. luteus (M) |  |  |  | 
